{"source": "patent US8741614B2", "about": "“Crystal structure of isoglutaminyl cyclase” (Probiodrug AG, priority 2010, dated 2014)", "key": {"human QC": {"molecular_target": "human QC (Homo sapiens, UniProt Q16769)", "sequence (Q16769 29-361)": "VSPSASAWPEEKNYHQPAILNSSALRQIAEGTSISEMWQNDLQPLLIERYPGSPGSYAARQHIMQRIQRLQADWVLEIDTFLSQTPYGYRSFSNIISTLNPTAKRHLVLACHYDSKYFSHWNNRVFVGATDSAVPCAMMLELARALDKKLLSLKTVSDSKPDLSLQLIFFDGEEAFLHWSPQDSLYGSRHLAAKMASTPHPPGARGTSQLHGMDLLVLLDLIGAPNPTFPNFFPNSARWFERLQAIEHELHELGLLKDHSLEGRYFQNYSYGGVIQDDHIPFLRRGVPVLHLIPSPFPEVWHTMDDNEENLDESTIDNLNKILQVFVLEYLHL", "assay": "inhibition of human QC in vitro", "type": "biochemical"}, "mouse QC": {"molecular_target": "mouse QC (Mus musculus, UniProt Q9CYK2)", "sequence (Q9CYK2 36-362)": "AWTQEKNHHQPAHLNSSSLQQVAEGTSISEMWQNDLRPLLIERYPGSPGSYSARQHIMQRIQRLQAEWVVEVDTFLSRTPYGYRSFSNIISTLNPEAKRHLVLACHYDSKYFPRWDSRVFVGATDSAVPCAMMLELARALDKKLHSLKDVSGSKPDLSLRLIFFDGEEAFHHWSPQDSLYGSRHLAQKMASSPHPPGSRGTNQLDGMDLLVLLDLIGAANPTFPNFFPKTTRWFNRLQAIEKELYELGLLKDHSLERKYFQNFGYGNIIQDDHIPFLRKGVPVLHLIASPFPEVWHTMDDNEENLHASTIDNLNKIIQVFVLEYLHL", "assay": "inhibition of mouse QC in vitro", "type": "biochemical"}, "solubility in water": {"assay": "solubility in water", "type": "physicochemical"}}, "data": [{"smiles": "COc1ccc(NC(=S)NCCCn2ccnc2)cc1OC", "note": "[Inhibitor A, 1-(3-(1H-Imidazol-1-yl)propyl)-3-(3,4-dimethoxyphenyl)thiourea]", "values": [{"measurement": "inhibition of human QC", "setting": "human QC", "value": "inhibits"}, {"measurement": "inhibition of mouse QC", "setting": "mouse QC", "value": "inhibits"}, {"measurement": "solubility in water", "setting": "solubility in water", "value": "soluble in water"}]}]}
